SMILES strings stand for the structures.

T1 sequence (P30518 whole entry): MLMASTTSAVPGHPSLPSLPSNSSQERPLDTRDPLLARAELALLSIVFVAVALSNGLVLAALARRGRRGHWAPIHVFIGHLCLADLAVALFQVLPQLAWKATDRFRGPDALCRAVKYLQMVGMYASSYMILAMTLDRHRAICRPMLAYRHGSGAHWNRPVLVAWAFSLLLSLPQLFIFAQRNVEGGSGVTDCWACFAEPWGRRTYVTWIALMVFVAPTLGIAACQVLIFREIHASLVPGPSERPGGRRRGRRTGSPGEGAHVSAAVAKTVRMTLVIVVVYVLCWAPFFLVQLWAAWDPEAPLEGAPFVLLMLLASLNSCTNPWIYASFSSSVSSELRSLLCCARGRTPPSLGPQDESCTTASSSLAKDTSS

The test concerns the target T1, human vasopressin V2 receptor subtype (Homo sapiens, UniProt P30518).
T1 construct: host or cells: CHO cells (pZeoSV vector)
The test can be described thus: Vasopressin binding in Chinese Hamster Ovary cell membranes expressing human vasopressin V2 subtype receptors. Conditions: 100 nM, CHO cell membranes, [3H]arginine vasopressin, values without parentheses. A digest of the protocol:
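Radioligand displacement on membranes from CHO cells stably expressing human V2 receptor, 25 to 50 μg protein/well, in 50 mM Tris-HCl pH 7.4 with MgCl2, BSA and protease inhibitors. [^3H]arginine vasopressin (8 nM working solution) incubated 60 min at room temperature; bound label measured by filtration and scintillation counting.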
The term inhibition denotes the change of the read-out against control, counted positive when it falls. Consider `Cc1cc(C(=O)N2Cc3ccc(C(=O)N4CCC(N5CCCC5)CC4)n3Cc3ccccc32)ccc1-c1ccccc1C(F)(F)F` [Example 148, (10-{[2-Methyl-2′-(trifluoromethyl)[1,1′-biphenyl]-4-yl]carbonyl}-10,11-dihydro-5H-pyrrolo[2,1-c][1,4]benzodiazepin-3-yl)[4-(1-pyrrolidinyl)-1-piperidinyl]methanone], for which the inhibition at 0.1 µM worked out at 1%.
In the case of `COc1cccc(-c2ccc(C(=O)N3Cc4ccc(C(=O)N5CCC(N6CCCC6)CC5)n4Cc4ccccc43)cc2OC)c1` [Example 146, {10-[(2,3′-Dimethoxy[1,1′-biphenyl]-4-yl)carbonyl]-10,11-dihydro-5H-pyrrolo[2,1-c][1,4]benzodiazepin-3-yl}[4-(1-pyrrolidinyl)-1-piperidinyl]methanone], the inhibition at 0.1 µM was found to be 12%.
`Cc1cc(C(=O)N2Cc3ccc(C(=O)N4CCC(N5CCCCC5)CC4)n3Cc3ccccc32)ccc1-c1ccccc1C(F)(F)F` [Example 122, {10-[(2-Methyl-2′-(trifluoromethyl) -[1,1′-biphenyl]-4-yl)carbonyl]-10,11-dihydro-5H -pyrrolo[2,1-c][1,4]benzodiazepin-3-yl}[4-(1-piperidinyl)-1-piperidinyl]methanone]: the inhibition at 0.1 µM was found to be 8%.
As for `Cc1cc(C(=O)N2Cc3ccc(C(=O)NCCCN(C)C)n3Cc3ccccc32)ccc1-c1ccccc1C(F)(F)F` [Example 84, N-[3-(Dimethylamino)propyl]-10-{[2-methyl-2′-(trifluoromethyl)[1,1′-biphenyl]-4-yl]carbonyl}-10,11-dihydro-5H-pyrrolo[2,1-c][1 .4]benzodiazepine-3-carboxamide], the “V2 % inhibition @ 100 nM” value was 11%.
For the compound `COc1cccc(-c2ccc(C(=O)N3Cc4ccc(C(=O)N5CCC(N6CCCCC6)CC5)n4Cc4ccccc43)cc2C)c1` [Example 114, {10-[(2-Methyl-3′-methoxy[1,1′-biphenyl]-4-yl)carbonyl]-10,11-dihydro-5H-pyrrolo[2,1-c][1,4]benzodiazepin-3-yl}[4-(1-piperidinyl)-1-piperidinyl]methanone], the inhibition at 0.1 µM was determined as 22%.
Regarding `COc1cccc(-c2ccc(C(=O)N3Cc4ccc(C(=O)NCCCn5ccnc5)n4Cc4ccccc43)cc2OC)c1` [Example 133, 10-[(2,3′-Dimethoxy[1,1′-biphenyl]4-yl)carbonyl]-N-[3-(1H-imidazol-1-yl)propyl]-10,11-dihydro-5H-pyrrolo[2,1-c][1,4]benzodiazepine-3-carboxamide], the inhibition at 0.1 µM stood at 8%.
`Cc1ccccc1-c1ccc(C(=O)N2Cc3ccc(C(=O)N4CCC[C@H]4CN4CCCC4)n3Cc3ccccc32)cc1C` [Example 260, {10-[(2,2′-Dimethyl[1,1′-biphenyl]-4-yl)carbonyl]-10,11-dihydro-5H-pyrrolo[2,1-c][1,4]benzodiazepin-3-yl}[(2S)-2-(1-pyrrolidinylmethyl)pyrrolidinyl]methanone]: the “V2 % inhibition @ 100 nM” value was 20%.
For the compound `O=C(c1ccc2n1Cc1ccccc1N(C(=O)c1ccc(-c3cccc4ccccc34)cc1Cl)C2)N1CCC(N2CCCC2)CC1` [Example 147, {10-[2-Chloro-4-(1-naphthyl)benzoyl]-10,11-dihydro-5H-pyrrolo[2,1-c][1,4]benzodiazepin-3-yl}[4-(1-pyrrolidinyl)-1-piperidinyl]methanone], the inhibition at 0.1 µM was found to be 20%.
As to `COc1cc(C(=O)N2Cc3ccc(C(=O)N4CCC[C@H]4CN4CCCC4)n3Cc3ccccc32)ccc1-n1c(C)ccc1C` [Example 321, {10-[4-(2,5-Dimethyl-1H-pyrrol-1-yl)-3-methoxybenzoyl]-10,11-dihydro-5H-pyrrolo[2,1-c][1,4]benzodiazepin-3-yl}[(2S)-2-(1-pyrrolidinylmethyl)pyrrolidinyl]methanone], the “V2 % inhibition @ 100 nM” value came out at 23%.
Consider `COc1ccccc1-c1ccc(C(=O)N2Cc3ccc(C(=O)N4CCC(N5CCCC5)CC4)n3Cc3ccccc32)cc1` [Example 140, {10-[(2′-Methoxy[1,1′-biphenyl]-4-yl)carbonyl]-10,11-dihydro-5H-pyrrolo[2,1-c][1,4]benzodiazepin-3-yl}[4-(1-pyrrolidinyl)-1-piperidinyl]methanone], for which the inhibition at 0.1 µM came to 29%.
The same measure, in the same setting: as for `COc1cc(C(=O)N2Cc3ccc(C(=O)N4CCC(N5CCCC5)CC4)n3Cc3ccccc32)ccc1-c1ccccc1C` [Example 142, {10-[(2-Methoxy-2′-methyl[1,1′-biphenyl]-4-yl)carbonyl]-10,11-dihydro-5H-pyrrolo[2,1-c][1,4]benzodiazepin-3-yl}[4-(1-pyrrolidinyl)-1-piperidinyl]methanone], the figure is -5%.
Turning to `COc1ccccc1-c1ccc(C(=O)N2Cc3ccc(C(=O)N4CCC[C@H]4CN4CCCC4)n3Cc3ccccc32)cc1C` [Example 259, {10-[(2′-Methoxy-2-methyl[1,1′-biphenyl]-4-yl)carbonyl]-10,11-dihydro-5H-pyrrolo[2,1-c][1,4]benzodiazepin-3-yl}[(2S)-2-(1-pyrrolidinylmethyl)pyrrolidinyl]methanone], the “V2 % inhibition @ 100 nM” value is given as −3%.
In the case of `COC(=O)c1ccc2c(c1)N(C(=O)c1ccc(-c3ccccc3C(F)(F)F)c(C)c1)Cc1cccn1C2` [Example 26, Methyl 10-{[2-methyl-2′-trifluoromethyl-[1,1′-biphenyl]-4-yl]carbonyl}-10,11-dihydro-5H-pyrrolo[2,1-c][1.4]benzodiazepine-8-carboxylate], the “V2 % inhibition @ 100 nM” value came out at 3%.
With `COc1ccccc1-c1ccc(C(=O)N2Cc3ccc(C(=O)NCCN4CCCCC4)n3Cc3ccccc32)cc1C` [Example 149, 10-[(2′-Methoxy-2-methyl[1,1′-biphenyl]-4-yl)carbonyl]-N-[2-(1-piperidinyl)ethyl]-10,11-dihydro-5H-pyrrolo[2,1-c][1,4]benzodiazepine-3-carboxamide], the inhibition at 0.1 µM is 20%.
In the case of `COc1cccc(-c2ccc(C(=O)N3Cc4ccc(C(=O)N5CCC(N6CCCCC6)CC5)n4Cc4ccccc43)cc2OC)c1` [Example 120, {10-[(2,3′-Dimethoxy-[1,1′-biphenyl]-4-yl)carbonyl]-10,11-dihydro-5H-pyrrolo[2,1-c][1,4]benzodiazepin-3-yl}[4-(1-piperidinyl)-1-piperidinyl]methanone], the inhibition at 0.1 µM came out at 6%.
`COc1cccc(-c2ccc(C(=O)N3Cc4ccc(C(=O)N5CCC[C@H]5CN5CCCC5)n4Cc4ccccc43)cc2OC)c1` [Example 270, {10-[(2,3′-Dimethoxy[1,1′-biphenyl]-4-yl)carbonyl]-10,11-dihydro-5H-pyrrolo[2,1-c][1,4]benzodiazepin-3-yl}[(2S)-2-(1-pyrrolidinylmethyl)pyrrolidinyl]methanone]: the “V2 % inhibition @ 100 nM” value is 25%.
For the compound `COc1cccc(-c2cc(OC)c(C(=O)N3Cc4ccc(C(=O)N5CCC(N6CCCC6)CC5)n4Cc4ccccc43)cc2Cl)c1` [Example 143, {10-[(6-Chloro-3,3′-dimethoxy[1,1′-biphenyl]-4-yl)carbonyl]-10,11-dihydro-5H-pyrrolo[2,1-c][1,4]benzodiazepin-3-yl}[4-(1-pyrrolidinyl)-1-piperidinyl]methanone], the inhibition at 0.1 µM was determined as 7%.
Take `COc1ccccc1-c1ccc(C(=O)N2Cc3ccc(C(=O)N4CC[C@@H](N(C)C)C4)n3Cc3ccccc32)cc1OC` [Example 282, {10-[(2,2′-Dimethoxy[1,1′-biphenyl]-4-yl)carbonyl]-10,11-dihydro-5H-pyrrolo[2,1-c][1,4]benzodiazepin-3-yl][(3R)-3-(dimethylamino)pyrrolidinyl]methanone]: the “V2 % inhibition @ 100 nM” value is listed as −17%.
On to `CN(C)CCCN(C)C(=O)c1ccc2n1Cc1ccccc1N(C(=O)c1ccc(-c3cccc4ccccc34)cc1Cl)C2` [Example 109, 10-[2-Chloro-4-(1-naphthyl)benzoyl]-N-[3-(dimethylamino)propyl]-N-methyl-10,11-dihydro-5H-pyrrolo[2,1-c][1,4]benzodiazepine-3-carboxamide], for which the inhibition at 0.1 µM worked out at 14%.
Take `CN(C)[C@@H]1CCN(C(=O)c2ccc3n2Cc2ccccc2N(C(=O)c2ccc(-c4cccc5ccccc45)cc2Cl)C3)C1` [Example 277, {10-[2-Chloro-4-(1-naphthyl)benzoyl]-10,11-dihydro-5H-pyrrolo[2,1-c][1,4]benzodiazepin-3-yl}[(3R)-3-(dimethylamino)pyrrolidinyl]methanone]: the “V2 % inhibition @ 100 nM” value is 19%.
In the case of `Cc1ccccc1-c1ccc(C(=O)N2Cc3ccc(C(=O)N4CC[C@@H](N(C)C)C4)n3Cc3ccccc32)cc1C` [Example 274, [(3R)-3-(Dimethylamino)pyrrolidinyl]{10-[(2,2′-dimethyl[1,1′-biphenyl]-4-yl)carbonyl]-10,11-dihydro-5H-pyrrolo[2,1-c][1,4]benzodiazepin-3-yl}methanone], the “V2 % inhibition @ 100 nM” value was determined as 32%.
In the case of `COc1ccccc1-c1ccc(C(=O)N2Cc3ccc(C(=O)N4CCC[C@H]4CN4CCCC4)n3Cc3ccccc32)cc1OC` [Example 269, {10-[(2,2′-Dimethoxy[1,1′-biphenyl]-4-yl)carbonyl]-10,11-dihydro-5H-pyrrolo[2,1-c][1,4]benzodiazepin-3-yl}[(2S)-2-(1-pyrrolidinylmethyl)pyrrolidinyl]methanone], the “V2 % inhibition @ 100 nM” value is reported as −19%.
For `O=C(c1ccc(-c2cccc3ccccc23)cc1Cl)N1Cc2ccc(C(=O)N3CCC[C@H]3CN3CCCC3)n2Cc2ccccc21` [Example 261, {10-[2-Chloro-4-(1-naphthyl)benzoyl]-10,11-dihydro-5H-pyrrolo[2,1-c][1,4]benzodiazepin-3-yl}[(2S)-2-(1-pyrrolidinylmethyl)pyrrolidinyl]methanone], the “V2 % inhibition @ 100 nM” value was found to be 18%.
The same measure, in the same setting: as for `COc1cc(-c2ccccc2C)c(Cl)cc1C(=O)N1Cc2ccc(C(=O)N3CCC[C@H]3CN3CCCC3)n2Cc2ccccc21` [Example 267, {10-[(6-Chloro-3-methoxy-2′-methyl[1,1′-biphenyl]-4-yl)carbonyl]-10,11-dihydro-5H-pyrrolo[2,1-c][1,4]benzodiazepin-3-yl}[(2S)-2-(1-pyrrolidinylmethyl)pyrrolidinyl]methanone], the figure is 24%.
